From PubChem BioAssay AID248 (DTP/NCI, 2004)
Where “and” joins values, the source holds several entries; their conditions need not be identical. Identical values can stand only once. Inconclusive results and toxic doses are left out. Rule as the data show it: active = T/C of 150% or more; inactive = T/C below 125%.

System: L1210 leukemia ip in BDF1 mice, survival T/C
Experiment: NCI In Vivo Anticancer Drug Screen. Data for tumor model L1210 Leukemia (intraperitoneal) in B6D2F1 (BDF1) mice
Details: endpoint: mean survival time, higher = longer survival
Method in brief: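 Each compound was tested against a transplantable tumor grown in mice. The endpoint was survival, with treated animals benchmarked against vehicle controls as a simple ratio.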

[1] = dose: 100.0 mg/kg/injection, schedule: Q01DX001 (ip), vehicle: saline
[2] = dose: 100.0 mg/kg/injection, schedule: Q04DX002 (ip), vehicle: saline
[3] = dose: 200.0 mg/kg/injection, schedule: Q01DX001 (ip), vehicle: saline
[4] = dose: 200.0 mg/kg/injection, schedule: Q04DX002 (ip), vehicle: saline
[5] = dose: 400.0 mg/kg/injection, schedule: Q04DX002 (ip), vehicle: saline
[6] = dose: 100.0 mg/kg/injection, schedule: Q04DX003 (ip), vehicle: saline
[7] = dose: 75.0 mg/kg/injection, schedule: Q01DX001 (ip), vehicle: saline
[8] = dose: 50.0 mg/kg/injection, schedule: Q01DX001 (ip), vehicle: Klucel (hydroxypropylcellulose) (HPC)
[9] = dose: 100.0 mg/kg/injection, schedule: Q01DX001 (ip), vehicle: Klucel (hydroxypropylcellulose) (HPC)
[10] = dose: 200.0 mg/kg/injection, schedule: Q01DX001 (ip), vehicle: Klucel (hydroxypropylcellulose) (HPC)
[11] = dose: 100.0 mg/kg/injection, schedule: Q01DX001 (ip), vehicle: carboxymethylcellulose (CMC)
[12] = dose: 200.0 mg/kg/injection, schedule: Q01DX001 (ip), vehicle: carboxymethylcellulose (CMC)

Measured: T/C

Nc1nc2ncc(NCc3ccc(C(=O)NC(CCC(=O)O)C(=O)O)cc3)nc2c(=O)[nH]1 (stereo not given)
inactive: [1] 92 % of control | dose: 100.0 mg/kg/injection, schedule: Q01DX009 (ip), vehicle: saline 103 % of control | [2] 96 % of control and 100 % of control | [3] 91 % of control | dose: 200.0 mg/kg/injection, schedule: Q01DX009 (ip), vehicle: saline 100 % of control | [4] 100 % of control and 102 % of control | dose: 400.0 mg/kg/injection, schedule: Q01DX001 (ip), vehicle: saline 100 % of control | dose: 400.0 mg/kg/injection, schedule: Q01DX009 (ip), vehicle: saline 96 % of control | [5] 100 % of control and 105 % of control

O=C(Nc1ccc(CCO)cc1)c1cccc(F)c1
inactive: dose: 100.0 mg/kg/injection, schedule: Q01DX009 (ip), vehicle: Klucel (hydroxypropylcellulose) (HPC) 96 % of control | dose: 200.0 mg/kg/injection, schedule: Q01DX009 (ip), vehicle: Klucel (hydroxypropylcellulose) (HPC) 107 % of control | dose: 400.0 mg/kg/injection, schedule: Q01DX009 (ip), vehicle: Klucel (hydroxypropylcellulose) (HPC) 91 % of control

NC(=S)N/N=C/c1ccco1
inactive: dose: 25.0 mg/kg/injection, schedule: Q04DX003 (ip), vehicle: saline 105 % of control | dose: 50.0 mg/kg/injection, schedule: Q04DX003 (ip), vehicle: saline 109 % of control | [1] 101 % of control | dose: 100.0 mg/kg/injection, schedule: Q04DX003 (ip), vehicle: Klucel (hydroxypropylcellulose) (HPC) 93 % of control | [6] 94 % of control and 100 % of control | [3] 104 % of control | dose: 200.0 mg/kg/injection, schedule: Q04DX003 (ip), vehicle: Klucel (hydroxypropylcellulose) (HPC) 96 % of control | dose: 400.0 mg/kg/injection, schedule: Q04DX003 (ip), vehicle: Klucel (hydroxypropylcellulose) (HPC) 103 % of control

CC12CCC(C/C1=N\N=C(N)N)C2(C)C (stereo not given)
inactive: dose: 9.37 mg/kg/injection, schedule: Q01DX009 (ip), vehicle: saline 97 % of control | dose: 18.75 mg/kg/injection, schedule: Q01DX009 (ip), vehicle: saline 96 % of control | dose: 18.75 mg/kg/injection, schedule: Q04DX003 (ip), vehicle: saline 102 % of control | dose: 37.5 mg/kg/injection, schedule: Q01DX009 (ip), vehicle: saline 102 % of control | dose: 37.5 mg/kg/injection, schedule: Q04DX003 (ip), vehicle: saline 94 % of control | [7] 105 % of control | dose: 75.0 mg/kg/injection, schedule: Q04DX003 (ip), vehicle: saline 88 % of control

O=S=Nc1cc(Cl)c(Cl)cc1Cl
inactive: dose: 25.0 mg/kg/injection, schedule: Q04DX002 (ip), vehicle: saline 103 % of control | dose: 50.0 mg/kg/injection, schedule: Q04DX002 (ip), vehicle: saline 100 % of control | [2] 95 % of control and 109 % of control

Cc1cccc(C)c1NC(=O)NCCCl
inactive: [8] 97 % of control | [9] 108 % of control | [6] 105 % of control | [10] 101 % of control | dose: 200.0 mg/kg/injection, schedule: Q04DX003 (ip), vehicle: saline 97 % of control | dose: 400.0 mg/kg/injection, schedule: Q04DX003 (ip), vehicle: saline 100 % of control

CN(C)C(=O)c1cc[n+](Cc2ccc(Cl)c(Cl)c2)cc1
inactive: [6] 105 % of control

Cc1ccc(Cl)c(I)c1
inactive: [2] 103 % of control | [4] 103 % of control | [5] 95 % of control

COc1cc2c(cc1OC)/C(=C(\C#N)CCC(C)=O)NCC2
inactive: [11] 92 % of control | [12] 92 % of control

CN1CCC2(C1)C1CC3CC(C1)CC2C3 (stereo not given)
inactive: [7] 97 % of control

COc1ccc(CN2CCCN(Cc3ccc(OC)cc3OC)C2c2cc(OC)ccc2OC)c(OC)c1
inactive: dose: 50.0 mg/kg/injection, schedule: Q01DX001 (ip), vehicle: carboxymethylcellulose (CMC) 114 % of control | [11] 102 % of control | [12] 102 % of control | dose: 400.0 mg/kg/injection, schedule: Q01DX001 (ip), vehicle: carboxymethylcellulose (CMC) 108 % of control

CC(=O)CC(=O)Nc1ccccc1C
inactive: [8] 100 % of control | [9] 106 % of control | [10] 106 % of control
